According to patent US11712438B2, “Phenyl derivatives as PGE2 receptor modulators” (IDORSIA PHARMACEUTICALS LTD, priority 2017, dated 2023):
pIC50: −log10 of the molar value.

Key:
Test in all cases: cell-based
PTGER2 (EP2) = PTGER2 (EP2) (Homo sapiens, UniProt P43116)
PTRGER4 (EP4) = PTRGER4 (EP4) (Homo sapiens, UniProt P35408);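 further: assay plate preincubated 15 min at 37 °C, after which PGE2 was added at 20 nM final and incubation continued 120 min at 37 °C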
EP2 = EP2 (Homo sapiens, UniProt P43116);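 further: SF295 glioblastoma cells with endogenous EP2 only, PGE2-stimulated cAMP accumulation read by HTRF competitive immunoassay, 45 min pre-incubation then 30 min at room temperature, IBMX in buffer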
EP2, sequence (P43116 whole entry): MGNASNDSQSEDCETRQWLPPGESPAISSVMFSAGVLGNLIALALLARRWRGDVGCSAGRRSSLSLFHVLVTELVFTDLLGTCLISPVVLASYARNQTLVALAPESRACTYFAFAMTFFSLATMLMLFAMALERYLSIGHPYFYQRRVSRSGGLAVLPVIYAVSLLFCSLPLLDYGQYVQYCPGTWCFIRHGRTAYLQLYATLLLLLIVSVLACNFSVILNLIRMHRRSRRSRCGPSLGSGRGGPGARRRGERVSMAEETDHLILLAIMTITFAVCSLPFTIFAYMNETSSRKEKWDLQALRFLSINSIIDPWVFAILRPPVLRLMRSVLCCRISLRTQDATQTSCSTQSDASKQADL

EP4 = EP4 (Homo sapiens, UniProt P35408);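 further: inhibition of PGE2-evoked (6 nM) cAMP accumulation in BT549 breast cancer cells endogenously expressing EP4, cAMP read by HTRF competitive immunoassay after 30 min at room temperature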
EP4, sequence (P35408 whole entry): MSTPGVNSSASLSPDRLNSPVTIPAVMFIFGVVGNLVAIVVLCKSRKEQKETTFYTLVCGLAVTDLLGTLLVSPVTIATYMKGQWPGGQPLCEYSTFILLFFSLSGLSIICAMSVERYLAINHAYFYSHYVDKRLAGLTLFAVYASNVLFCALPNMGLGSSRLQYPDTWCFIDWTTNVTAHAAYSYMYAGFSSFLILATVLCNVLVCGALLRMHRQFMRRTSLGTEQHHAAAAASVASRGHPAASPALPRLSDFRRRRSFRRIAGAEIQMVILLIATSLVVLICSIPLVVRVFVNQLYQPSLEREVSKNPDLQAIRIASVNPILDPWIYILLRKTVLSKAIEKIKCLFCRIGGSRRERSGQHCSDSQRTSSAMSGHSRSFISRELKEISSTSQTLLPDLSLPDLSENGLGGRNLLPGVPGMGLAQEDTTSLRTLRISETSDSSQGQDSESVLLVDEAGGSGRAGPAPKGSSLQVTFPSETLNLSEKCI
Description: Human tumor cell lines expressing endogenously either EP4 or EP2 are used and cAMP accumulation in cells upon PGE2 stimulation is monitored.
As a detection method for cAMP the HTRF (homogeneous time resolved fluorescence) Cisbio kit (HTRF cAMP dynamic 2 kit 20′000 tests Cisbio Cat. #62AM4PEC) was used, which is based on a competitive immunoassay using a Cryptate-labeled anti-cAMP antibody and d2-labeled cAMP. Native cAMP produced by cells or unlabeled cAMP (for the standard curve) compete with exogenously added d2-labeled cAMP (acceptor) for binding to monoclonal anti-cAMP-Eu3+ Cryptate (donor). A FRET signal (Fluorescence Resonance Energy Transfer) is obtained only if the labeled anti-cAMP antibody binds the d2 labelled cAMP, thus the specific signal (i.e. energy transfer) is inversely proportional to the concentration of cAMP in the standard or sample.
The BT549 cells (NCI/No. 0507282) are detached from culture dishes with a cell dissociation buffer (Invitrogen, 13151-014), and collected in growing medium (GM: RPM11640 (Invitrogen 21875)/10% FCS, 1% Penicilin/streptomycin). Cells are counted washed and resuspended in assay buffer (AB; HBSS, 20 mM HEPES, 0.2% BSA; 2 mM IBMX). 4′000 cells in 5 μl of AB are seeded per well of a small volume 384 well plate (black with flat bottom, Greiner 784076).
Stock solutions of test compounds are made at a concentration of 10 mM in DMSO, and serially diluted in DMSO to concentrations required for inhibition dose response curves (tested concentration range 30 μM-0.4 nM; 30 μM-0.015 nM or 1 μM-0.01 nM).
PGE2 (Cayman 14010, stock solution: 6 μM in DMSO) is used as agonist at 6 nM final concentration, corresponding to EC80.
Two point five microliters of diluted compounds are transferred into the assay plate. Plate is pre-incubated 45 minutes at room temperature. Subsequently, 2.5 microliters of PGE2 (final conc. 6 nM) are transferred into the assay plate. Plate is incubated 30 minutes at room temperature.
For each compound concentration the percentage of cAMP compared to DMSO control value as average±STDEV (each concentration is measured in duplicate) is calculated.
When compounds were measured multiple times, mean values are given.

PTRGER4 (EP4), sequence (P35408 whole entry): as above
PTGER2 (EP2), sequence (P43116 whole entry): as the sequence (P43116 whole entry) above

CCc1cc(-c2cc(NCCc3c(F)cc(Br)cc3F)ncn2)sc1CC(=O)O [Example 261, (5-{6-[2-(4-Bromo-2,6-difluoro-phenyl)-ethylamino]-pyrimidin-4-yl}-3-ethyl-thiophen-2yl)-acetic acid]
pIC50 (PTGER2 (EP2)): 7.24 | pIC50 (PTRGER4 (EP4)): 7.38 | pIC50 (EP2): 6.78 | pIC50 (EP4): 7.00

O=C(O)c1cccc2cc(-c3cc(NCCc4c(F)cc(Br)cc4F)ncn3)[nH]c12 [Example 263, 2-{6-[2-(4-Bromo-2,6-difluoro-phenyl)-ethylamino]-pyrimidin-4-yl}-1H-indole-7-carboxylic acid]
pIC50 (PTGER2 (EP2)): 7.51 | pIC50 (PTRGER4 (EP4)): 7.14 | pIC50 (EP2): 6.78 | pIC50 (EP4): 7.14

CCOc1cc(-c2cc(NCCc3c(F)cc(Br)cc3F)ncn2)[nH]c1C(=O)O [Example 268, 5-{6-[2-(4-Bromo-2,6-difluoro-phenyl)-ethylamino]-pyrimidin-4-yl}-3-ethoxy-1H-pyrrole-2-carboxylic acid]
pIC50 (PTGER2 (EP2)): 7.72 | pIC50 (PTRGER4 (EP4)): 6.53 | pIC50 (EP2): 7.68 | pIC50 (EP4): 6.65

O=C(O)c1[nH]c(-c2cc(NCCc3c(F)cc(Br)cc3F)ncn2)cc1C1CC1 [Example 271, 5-{6-[2-(4-Bromo-2,6-difluoro-phenyl)-ethylamino]-pyrimidin-4-yl}-3-cyclopropyl-1H-pyrrole-2-carboxylic acid]
pIC50 (PTGER2 (EP2)): 7.44 | pIC50 (PTRGER4 (EP4)): 6.42 | pIC50 (EP2): 6.82 | pIC50 (EP4): 5.75

CCOc1cc(-c2cc(NCCc3c(F)cc(Br)cc3F)ncn2)ccc1-c1cc(O)no1 [Example 273, 5-(4-{6-[2-(4-Bromo-2,6-difluoro-phenyl)-ethylamino]-pyrimidin-4-yl}-2-ethoxy-phenyl)-isoxazol-3-ol]
pIC50 (PTGER2 (EP2)): 7.35 | pIC50 (PTRGER4 (EP4)): 7.25 | pIC50 (EP2): 6.44 | pIC50 (EP4): 6.68

CCOc1cc(-c2cc(NCCc3cc(Br)ccc3SC)ncn2)sc1-c1noc(=O)[nH]1 [Example 275, 3-(5-{6-[2-(5-Bromo-2-methylsulfanyl-phenyl)-ethylamino]-pyrimidin-4-yl}-3-ethoxy-thiophen-2-yl)-[1,2,4]oxadiazol-5(4H)-one]
pIC50 (PTGER2 (EP2)): 6.90 | pIC50 (PTRGER4 (EP4)): 7.05 | pIC50 (EP2): 6.79 | pIC50 (EP4): 7.74

CNc1cc(-c2cc(NCCc3c(F)cc(Br)cc3F)ncn2)ccc1C(=O)NCCO [Example 276, 4-{6-[2-(4-Bromo-2,6-difluoro-phenyl)-ethylamino]-pyrimidin-4-yl}-N-(2-hydroxy-ethyl)-2-methylamino-benzamide]
pIC50 (PTGER2 (EP2)): 7.64 | pIC50 (PTRGER4 (EP4)): 7.43 | pIC50 (EP2): 7.23 | pIC50 (EP4): 7.14

CNc1cc(-c2cc(NCCc3c(F)cc(Br)cc3F)ncn2)ccc1C(=O)NCCOC [Example 277, 4-{6-[2-(4-Bromo-2,6-difluoro-phenyl)-ethylamino]-pyrimidin-4-yl}-N-(2-methoxy-ethyl)-2-methylamino-benzamide]
pIC50 (PTGER2 (EP2)): 7.13 | pIC50 (PTRGER4 (EP4)): 7.17 | pIC50 (EP2): 6.66 | pIC50 (EP4): 6.62

CCn1cc(-c2cc(NCCc3c(F)cc(Br)cc3F)ncn2)cc1-c1noc(=O)[nH]1 [Example 278]
pIC50 (PTGER2 (EP2)): 7.19 | pIC50 (PTRGER4 (EP4)): 7.38 | pIC50 (EP2): 6.82 | pIC50 (EP4): 7.05

CCOc1cc(-c2cc(NCCc3c(F)cc(Br)cc3F)ncn2)sc1C(N)=O [Example 279, 5-{6-[2-(4-Bromo-2,6-difluoro-phenyl)-ethylamino]-pyrimidin-4-yl}-3-ethoxy-thiophene-2-carboxylic acid amide]
pIC50 (PTGER2 (EP2)): 7.34 | pIC50 (PTRGER4 (EP4)): 8.30 | pIC50 (EP2): 7.14 | pIC50 (EP4): 7.92

CCc1cc(-c2cc(NCCc3c(F)cc(Br)cc3F)ncn2)sc1C(N)=O [Example 281, 5-{6-[2-(4-Bromo-2,6-difluoro-phenyl)-ethylamino]-pyrimidin-4-yl}-3-ethyl-thiophene-2-carboxylic acid amide]
pIC50 (PTGER2 (EP2)): 7.25 | pIC50 (PTRGER4 (EP4)): 7.43 | pIC50 (EP2): 7.33 | pIC50 (EP4): 7.09

CCOc1cc(-c2cc(NCCc3c(F)cc(Br)cc3F)ncn2)ccc1Cc1noc(=O)[nH]1 [Example 282, 3-(4-{6-[2-(4-Bromo-2,6-difluoro-phenyl)-ethylamino]-pyrimidin-4-yl}-2-ethoxy-benzyl)-[1,2,4]oxadiazol-5(4H)-one]
pIC50 (PTGER2 (EP2)): 6.87 | pIC50 (PTRGER4 (EP4)): 7.08 | pIC50 (EP2): 5.99 | pIC50 (EP4): 6.42

CCOc1cc(-c2cc(NCCc3c(F)cc(Br)cc3F)ncn2)ccc1Cc1noc(=S)[nH]1 [Example 283, 3-(4-{6-[2-(4-Bromo-2,6-difluoro-phenyl)-ethylamino]-pyrimidin-4-yl}-2-ethoxy-benzyl)-[1,2,4]oxadiazole-5(4H)-thione]
pIC50 (PTGER2 (EP2)): 6.93 | pIC50 (PTRGER4 (EP4)): 6.61 | pIC50 (EP2): 6.02 | pIC50 (EP4): 6.23

O=c1[nH]c(-c2ccc(-c3cc(NCCc4c(F)cc(Br)cc4F)ncn3)cn2)no1 [Example 289, 3-(5-{6-[2-(4-Bromo-2,6-difluoro-phenyl)-ethylamino]-pyrimidin-4-yl}-pyridin-2-yl)-[1,2,4]oxadiazol-5(4H)-one]
pIC50 (PTGER2 (EP2)): 7.10 | pIC50 (PTRGER4 (EP4)): 6.51 | pIC50 (EP2): 6.63 | pIC50 (EP4): 6.49

COc1cc(-c2noc(=O)[nH]2)ccc1-c1cc(NCCc2c(F)cc(Br)cc2F)ncn1 [Example 291, 3-(4-{6-[2-(4-Bromo-2,6-difluoro-phenyl)-ethylamino]-pyrimidin-4-yl}-3-methoxy-phenyl)-[1,2,4]oxadiazol-5(4H)-one]
pIC50 (PTGER2 (EP2)): 7.06 | pIC50 (PTRGER4 (EP4)): 7.11 | pIC50 (EP2): 6.11 | pIC50 (EP4): 6.81

CCOc1c(C(N)=O)sc(-c2cc(NCCc3c(F)cc(Br)cc3F)ncn2)c1Cl [Example 293, 5-{6-[2-(4-Bromo-2,6-difluoro-phenyl)-ethylamino]-pyrimidin-4-yl}-4-chloro-3-ethoxy-thiophene-2-carboxylic acid amide]
pIC50 (PTGER2 (EP2)): 6.86 | pIC50 (PTRGER4 (EP4)): 7.39 | pIC50 (EP2): 6.05 | pIC50 (EP4): 6.49

CCOc1cc(-c2cc(NCCc3c(F)cc(Br)cc3F)ncn2)sc1-n1nn[nH]c1=O [Example 294, 1-(5-{6-[2-(4-Bromo-2,6-difluoro-phenyl)-ethylamino]-pyrimidin-4-yl}-3-ethoxy-thiophen-2-yl)-1,4-dihydro-tetrazol-5-one]
pIC50 (PTGER2 (EP2)): 7.57 | pIC50 (PTRGER4 (EP4)): 7.74 | pIC50 (EP2): 7.33 | pIC50 (EP4): 7.66

CCOc1cc(-c2cc(NCCc3c(F)cc(Br)cc3F)ncn2)sc1-c1noc(=S)[nH]1 [Example 295, 3-(5-{6-[2-(4-Bromo-2,6-difluoro-phenyl)-ethylamino]-pyrimidin-4-yl}-3-ethoxy-thiophen-2-yl)-[1,2,4]oxadiazole-5(4H)-thione]
pIC50 (PTGER2 (EP2)): 7.92 | pIC50 (PTRGER4 (EP4)): 8.70 | pIC50 (EP2): 7.08 | pIC50 (EP4): 8.70

CNc1cc(-c2cc(NCCc3c(F)cc(Br)cc3F)ncn2)ccc1-c1noc(=O)[nH]1 [Example 296, 3-(4-{6-[2-(4-Bromo-2,6-difluoro-phenyl)-ethylamino]-pyrimidin-4-yl}-2-methylamino-phenyl)-[1,2,4]oxadiazol-5(4H)-one]
pIC50 (PTGER2 (EP2)): 7.92 | pIC50 (PTRGER4 (EP4)): 8.05 | pIC50 (EP2): 7.36 | pIC50 (EP4): 7.85

CCCc1cc(-c2cc(NCCc3c(F)cc(Br)cc3F)ncn2)sc1CC(=O)O [Example 314, (5-{6-[2-(4-Bromo-2,6-difluoro-phenyl)-ethylamino]-pyrimidin-4-yl}-3-propyl-thiophen-2-yl)-acetic acid]
pIC50 (PTGER2 (EP2)): 7.26 | pIC50 (PTRGER4 (EP4)): 7.21 | pIC50 (EP2): 6.77 | pIC50 (EP4): 7.57

O=C(O)Cc1sc(-c2cc(NCCc3c(F)cc(Br)cc3F)ncn2)cc1OC(F)F [Example 315, (5-{6-[2-(4-Bromo-2,6-difluoro-phenyl)-ethylamino]-pyrimidin-4-yl}-3-difluoromethoxy-thiophen-2-yl)-acetic acid]
pIC50 (PTGER2 (EP2)): 7.60 | pIC50 (PTRGER4 (EP4)): 7.42 | pIC50 (EP2): 7.77 | pIC50 (EP4): 7.55
